Key:
[1] = target: T1, Caspase-7 (Homo sapiens, UniProt P55210); assay: Inhibitory concentration against caspase-7
T1 sequence (P55210 whole entry): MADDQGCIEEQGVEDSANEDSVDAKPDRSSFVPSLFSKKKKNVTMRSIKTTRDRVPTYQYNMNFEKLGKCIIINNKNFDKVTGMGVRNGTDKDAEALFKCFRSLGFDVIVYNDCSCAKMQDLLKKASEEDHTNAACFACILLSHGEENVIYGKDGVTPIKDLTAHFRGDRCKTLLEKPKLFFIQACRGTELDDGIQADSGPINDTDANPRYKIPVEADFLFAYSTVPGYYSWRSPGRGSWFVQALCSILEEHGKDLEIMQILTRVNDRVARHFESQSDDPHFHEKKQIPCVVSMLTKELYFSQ

[2] = target: T2, Caspase-6 (Homo sapiens, UniProt P55212); assay: Inhibitory concentration required against caspase-6
T2 sequence (P55212 whole entry): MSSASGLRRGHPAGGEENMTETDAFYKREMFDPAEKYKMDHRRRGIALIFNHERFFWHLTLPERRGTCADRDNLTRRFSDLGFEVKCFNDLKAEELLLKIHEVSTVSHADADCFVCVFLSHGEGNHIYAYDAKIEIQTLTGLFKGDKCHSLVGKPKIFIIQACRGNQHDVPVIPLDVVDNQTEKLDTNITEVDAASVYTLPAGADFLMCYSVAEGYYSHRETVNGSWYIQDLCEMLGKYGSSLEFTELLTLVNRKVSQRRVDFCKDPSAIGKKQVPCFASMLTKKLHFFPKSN

[3] = target: Caspase-8 (Homo sapiens, UniProt Q14790); assay: Inhibitory concentration against caspase-8
Caspase-8, sequence (Q14790 217-374 limits assumed): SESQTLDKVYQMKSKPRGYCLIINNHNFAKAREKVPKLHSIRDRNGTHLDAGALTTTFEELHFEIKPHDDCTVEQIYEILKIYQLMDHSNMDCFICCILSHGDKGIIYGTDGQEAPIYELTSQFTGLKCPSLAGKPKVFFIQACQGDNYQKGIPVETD
Caspase-8, sequence (Q14790 385-479 limits assumed): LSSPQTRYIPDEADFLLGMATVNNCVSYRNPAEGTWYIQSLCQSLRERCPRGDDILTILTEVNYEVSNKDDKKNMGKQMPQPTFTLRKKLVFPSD

[4] = target: T3, Caspase-3 (Homo sapiens, UniProt P42574); assay: Inhibitory concentration against caspase-3
T3 sequence (P42574 whole entry): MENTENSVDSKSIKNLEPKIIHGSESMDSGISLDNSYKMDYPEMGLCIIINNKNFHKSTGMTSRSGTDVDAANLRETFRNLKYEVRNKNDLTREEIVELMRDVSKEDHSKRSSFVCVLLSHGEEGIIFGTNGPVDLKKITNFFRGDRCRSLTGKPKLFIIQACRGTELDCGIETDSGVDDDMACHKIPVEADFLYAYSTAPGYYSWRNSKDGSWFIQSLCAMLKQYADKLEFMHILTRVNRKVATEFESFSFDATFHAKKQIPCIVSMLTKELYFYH

[5] = target: Caspase-1 (Mus musculus) (UniProt P29452)
Caspase-1 (Mus musculus), sequence (P29452 whole entry, looked up): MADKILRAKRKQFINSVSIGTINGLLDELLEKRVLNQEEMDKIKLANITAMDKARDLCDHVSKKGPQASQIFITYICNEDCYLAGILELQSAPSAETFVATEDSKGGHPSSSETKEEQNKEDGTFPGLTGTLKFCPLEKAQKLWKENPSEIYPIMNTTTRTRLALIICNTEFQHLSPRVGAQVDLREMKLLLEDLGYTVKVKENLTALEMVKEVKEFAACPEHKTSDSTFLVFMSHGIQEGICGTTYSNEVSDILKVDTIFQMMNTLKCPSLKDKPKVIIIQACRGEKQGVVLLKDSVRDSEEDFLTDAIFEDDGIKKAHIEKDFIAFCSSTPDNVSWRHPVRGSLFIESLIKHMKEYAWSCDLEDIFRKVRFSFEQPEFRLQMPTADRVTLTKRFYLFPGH

| IC50 [1] [µM] | IC50 [2] [µM] | IC50 [3] [µM] | IC50 [4] [nM] | IC50 [5] [nM] | Structure (SMILES) |
| --- | --- | --- | --- | --- | --- |
| 4.08 | 22.6 | 1.45 | 263 | 831 | COc1ccc(OCC(=O)N[C@@H](CC(C)C)C(=O)N[C@H]2CC(=O)OC2O)c2ccccc12 (stereo partly drawn) |
| 34.7 | > 50 | > 50 | 1570 | 44200 | CC(C)C[C@H](NC(=O)COc1nccc2ccccc12)C(=O)N[C@H]1CC(=O)OC1O (stereo partly drawn) |
| > 10 | > 50 | > 10 | 3400 | > 10000 | CC(C)C[C@H](NC(=O)COc1ccccc1)C(=O)N[C@H]1CC(=O)OC1O (stereo partly drawn) |
| 18.2 | 14.5 | > 50 | 2760 | 1800 | CC(C)C[C@H](NC(=O)CCCc1ccc2ccccc2c1)C(=O)N[C@H]1CC(=O)OC1O (stereo partly drawn) |
| 7.25 | 33.4 | 8.6 | 570 | 2510 | CC(C)C[C@H](NC(=O)COc1ccc(OCc2ccccc2)cc1)C(=O)N[C@H]1CC(=O)OC1O (stereo partly drawn) |
| > 10 | > 10 | > 10 | > 10000 |  | CC(C)C[C@H](NC(=O)c1cccc2ccccc12)C(=O)N[C@H]1CC(=O)OC1O (stereo partly drawn) |
| 9.65 | 5.9 | 15.2 | 910 | 1320 | CC(C)C[C@H](NC(=O)CCOc1ccc2ccccc2c1)C(=O)N[C@H]1CC(=O)OC1O (stereo partly drawn) |
| 4.57 | > 50 | > 50 | 232 | 35300 | CC(C)C[C@H](NC(=O)COc1ccnc2ccccc12)C(=O)N[C@H]1CC(=O)OC1O (stereo partly drawn) |
| 6.81 | 10 | 12 | 1750 | 5850 | CC(C)[C@@H](NC(=O)OCc1ccccc1)C(=O)C[C@H]1CC(=O)OC1O (stereo partly drawn) |
| > 10 | 11.1 | 12.7 | 849 | 3140 | CC(C)C[C@H](NC(=O)Cc1ccc2ccccc2c1)C(=O)N[C@H]1CC(=O)OC1O (stereo partly drawn) |
| 2.2 | 9.75 | 4.34 | 222 | 2400 | CC(C)C[C@H](NC(=O)COc1ccccc1OCc1ccccc1)C(=O)N[C@H]1CC(=O)OC1O (stereo partly drawn) |
| > 10 | > 10 | > 10 | 6740 | 1740 | CC(C)C[C@H](NC(=O)c1ccc2ccccc2c1)C(=O)N[C@H]1CC(=O)OC1O (stereo partly drawn) |
| 1.51 | 12.5 | 2.24 | 147 | 13700 | CC(C)C[C@H](NC(=O)COc1cccc2cccnc12)C(=O)N[C@H]1CC(=O)OC1O (stereo partly drawn) |
| 8.77 | 4.18 | 12.2 | 1590 | 1860 | CC(C)C[C@H](NC(=O)CCc1cccc2ccccc12)C(=O)N[C@H]1CC(=O)OC1O (stereo partly drawn) |
| 9.72 | 5.05 | 13.4 | 1390 | 650 | CC(C)C[C@H](NC(=O)/C=C/c1ccccc1)C(=O)N[C@H]1CC(=O)OC1O (stereo partly drawn) |
| 3.48 | 42.7 | 3.64 | 407 | 5140 | CC(C)C[C@H](NC(=O)COc1cccc2cnccc12)C(=O)N[C@H]1CC(=O)OC1O (stereo partly drawn) |
| 6.04 | > 50 | > 10 | 419 | 9420 | CC(C)C[C@H](NC(=O)CCOc1ccccc1)C(=O)N[C@H]1CC(=O)OC1O (stereo partly drawn) |
| 5.89 | 1.62 | 15 | 837 | 611 | CC(C)C[C@H](NC(=O)CCSc1ccc2ccccc2c1)C(=O)N[C@H]1CC(=O)OC1O (stereo partly drawn) |
| 3.36 | 10.1 | 6.05 | 490 | 521 | CC(C)C[C@H](NC(=O)COc1ccccc1Cc1ccccc1)C(=O)N[C@H]1CC(=O)OC1O (stereo partly drawn) |
| 6.82 | 21.2 | 9.28 | 545 | 2210 | CC(C)C[C@H](NC(=O)COc1ccc(Oc2ccccc2)cc1)C(=O)N[C@H]1CC(=O)OC1O (stereo partly drawn) |
| 1.37 | 0.305 | 9.81 | 59 |  | CC(C)C[C@H](NC(=O)CCOc1cccc2ccccc12)C(=O)N[C@H]1CC(=O)OC1O (stereo partly drawn) |

| IC50 [1] [µM] | IC50 [2] [µM] | IC50 [3] [µM] | IC50 [4] [nM] | IC50 [5] [nM] | Structure (SMILES) |
| --- | --- | --- | --- | --- | --- |
| 1.32 | 1.28 | 2.43 | 376 |  | CC(C)C[C@H](NC(=O)C(C)Oc1cccc2ccccc12)C(=O)N[C@H]1CC(=O)OC1O (stereo partly drawn) |
| 3.6 | 2.72 | 16.3 | 412 | 563 | CC(C)C[C@H](NC(=O)CCSc1cccc2ccccc12)C(=O)N[C@H]1CC(=O)OC1O (stereo partly drawn) |
| > 10 | > 50 | > 10 | 3400 | > 10000 | CC(C)C[C@H](Nc1ccccc1)C(=O)N[C@H]1CC(=O)OC1O (stereo partly drawn) |
| 32.4 | 13.8 | 29.1 | 4810 |  | CC(C)C[C@H](NC(=O)C(C)Oc1cccc2cc(Br)ccc12)C(=O)N[C@H]1CC(=O)OC1O (stereo partly drawn) |
| 7.43 | 10.3 | 5.23 | 1420 | 543 | CC(C)C[C@H](NC(=O)CC(=O)c1ccc2ccccc2c1)C(=O)N[C@H]1CC(=O)OC1O (stereo partly drawn) |
| 2.74 | 11.8 | 1.75 | 324 | 1810 | CC(C)C[C@H](NC(=O)COc1cccc2c1CCCC2)C(=O)N[C@H]1CC(=O)OC1O (stereo partly drawn) |
| 3.85 | > 50 | 4.02 | 412 | 5250 | CC(C)C[C@H](NC(=O)COc1cccc2ncccc12)C(=O)N[C@H]1CC(=O)OC1O (stereo partly drawn) |
| 1.74 | 1.43 | 7.42 | 195 | 2750 | CC(C)C[C@H](NC(=O)CSc1cccc2ccccc12)C(=O)N[C@H]1CC(=O)OC1O (stereo partly drawn) |
| 1.81 | 0.94 | 0.77 | 135 |  | CC(C)C[C@H](NC(=O)COc1cccc2ccccc12)C(=O)N[C@H]1CC(=O)OC1O (stereo partly drawn) |
| 7.27 |  |  | 853 | 3240 | CC(C)C[C@H](NC(=O)Cc1cccc2ccccc12)C(=O)N[C@H]1CC(=O)OC1O (stereo partly drawn) |
| 11.3 | 11.8 | 11.2 | 967 | 408 | CC(C)C[C@H](NC(=O)CC(=O)c1cccc2ccccc12)C(=O)N[C@H]1CC(=O)OC1O (stereo partly drawn) |
| 2.79 | 5.86 | 3.87 | 474 | 1430 | Cc1ccc(OCC(=O)N[C@@H](CC(C)C)C(=O)N[C@H]2CC(=O)OC2O)c(C23CC4CC(CC(C4)C2)C3)c1 (stereo partly drawn) |
| 1.49 | 3.37 | 1.86 | 197 | 538 | CC(C)C[C@H](NC(=O)COc1ccccc1C1CCCC1)C(=O)N[C@H]1CC(=O)OC1O (stereo partly drawn) |
| 2.31 | 28.6 | 4.95 | 162 | 2570 | CC(C)C[C@H](NC(=O)COc1ccc2c(c1)CCCC2)C(=O)N[C@H]1CC(=O)OC1O (stereo partly drawn) |
| 4.41 | 18.9 | 4.72 | 346 | 1800 | CC(C)C[C@H](NC(=O)COc1ccc(Cc2ccccc2)cc1)C(=O)N[C@H]1CC(=O)OC1O (stereo partly drawn) |
| 2.52 | 3.16 | 11 | 269 | 792 | CC(C)C[C@H](NC(=O)CSc1ccc2ccccc2c1)C(=O)N[C@H]1CC(=O)OC1O (stereo partly drawn) |
| 8.24 | 32.5 | 4.35 | 528 | 1830 | CC(C)C[C@H](NC(=O)COc1ccc(C23CC4CC(CC(C4)C2)C3)cc1)C(=O)N[C@H]1CC(=O)OC1O (stereo partly drawn) |
| 3.38 | 12 | 1.69 | 231 | 429 | CC(C)C[C@H](NC(=O)COc1ccc(Cl)c2ccccc12)C(=O)N[C@H]1CC(=O)OC1O (stereo partly drawn) |
| 3.75 | 14.5 | 3.86 | 311 | 1100 | CC(C)C[C@H](NC(=O)COc1cccc(-c2ccccc2)c1)C(=O)N[C@H]1CC(=O)OC1O (stereo partly drawn) |
| 2.02 | 0.717 | 1.71 | 95 | 636 | CC(C)C[C@H](NC(=O)COc1ccccc1-c1ccccc1)C(=O)N[C@H]1CC(=O)OC1O (stereo partly drawn) |
| 5.23 | 51.2 | 5.9 | 319 | 2200 | CC(C)C[C@H](NC(=O)COc1ccc(C2CCCC2)cc1)C(=O)N[C@H]1CC(=O)OC1O (stereo partly drawn) |

Source: ChEMBL document CHEMBL1134914, “Acyl dipeptides as reversible caspase inhibitors. Part 1: initial lead optimization” (Bioorg Med Chem Lett, 2002)
